Our source for the inhibition and IC50 values is patent US6262084A, “Compounds that inhibit the binding of integrins to their receptors” (Texas Biotechnology Corporation, priority 1999, dated 2001).

The target of the assay is T1, α4β1 integrin (Homo sapiens, UniProt P05556+P13612).
T1 construct: Ramos cells fluorescently labeled with calcein; endogenous in cells; host or cells: Ramos cells
In words: Inhibition of adhesion of calcein-labeled Ramos cells to CS1 (fibronectin) peptide-conjugated ovalbumin. The class given is cell-based. Particulars: Table 1; for inhibition at 100 µM: Ramos, compound at a concentration of 100 μM, read-out: % A (percent inhibition of cell adhesion); for IC50: dose required to give 50% inhibition, Ramos cell adhesion to CS1-ovalbumin, 30 minutes at 37° C. How it is done: The ability of compounds of the present invention to inhibit binding is described in detail hereinafter in the Examples by a procedure in which a 26-amino acid peptide containing the CS1 sequence of fibroncctin with an N-terminal Cys was coupled to maleimide activated ovalbumin. Ovalbumin and CS1 conjugated ovalbumin were coated onto 96-well polystyrene plates at 5 μg/ml in TBS (50 mM Tris, pH 7.5; 150 mM NaCl) at 4° C. for 16 hours. The plates were washed three times with TBS and blocked with TBS containing 3% BSA at room temperature for 4 hours. Blocked plates were washed three times in binding buffer (TBS; 1 mM MgCl2; 1 mM CaCl2; 1 mM MnCl2) prior to assay. Ramos cells fluorescently labeled with calcein AMC-3099 were resuspended in binding buffer (10^7 cells/ml) and diluted 1:2 with same buffer with or without compound. The cells were added immediately to the wells (2.5×10^5 cells/well) and incubated for 30 minutes at 37° C. Following three washes with binding buffer, adherent cells were lysed and quantitated using a fluorometer.
IC50 is defined as the dose required to give 50% inhibition. The lower the IC50 value and the greater the percentage of inhibition, the more efficient the compound is at prevention of cell adhesion. A stands for inhibition in Table 1, and the percent inhibition indicates the inhibition of cell adhesion when compound is included in the assay at a concentration of 100 μM.

Molecules are shown by their SMILES.

T1 sequence (P13612 34-1032): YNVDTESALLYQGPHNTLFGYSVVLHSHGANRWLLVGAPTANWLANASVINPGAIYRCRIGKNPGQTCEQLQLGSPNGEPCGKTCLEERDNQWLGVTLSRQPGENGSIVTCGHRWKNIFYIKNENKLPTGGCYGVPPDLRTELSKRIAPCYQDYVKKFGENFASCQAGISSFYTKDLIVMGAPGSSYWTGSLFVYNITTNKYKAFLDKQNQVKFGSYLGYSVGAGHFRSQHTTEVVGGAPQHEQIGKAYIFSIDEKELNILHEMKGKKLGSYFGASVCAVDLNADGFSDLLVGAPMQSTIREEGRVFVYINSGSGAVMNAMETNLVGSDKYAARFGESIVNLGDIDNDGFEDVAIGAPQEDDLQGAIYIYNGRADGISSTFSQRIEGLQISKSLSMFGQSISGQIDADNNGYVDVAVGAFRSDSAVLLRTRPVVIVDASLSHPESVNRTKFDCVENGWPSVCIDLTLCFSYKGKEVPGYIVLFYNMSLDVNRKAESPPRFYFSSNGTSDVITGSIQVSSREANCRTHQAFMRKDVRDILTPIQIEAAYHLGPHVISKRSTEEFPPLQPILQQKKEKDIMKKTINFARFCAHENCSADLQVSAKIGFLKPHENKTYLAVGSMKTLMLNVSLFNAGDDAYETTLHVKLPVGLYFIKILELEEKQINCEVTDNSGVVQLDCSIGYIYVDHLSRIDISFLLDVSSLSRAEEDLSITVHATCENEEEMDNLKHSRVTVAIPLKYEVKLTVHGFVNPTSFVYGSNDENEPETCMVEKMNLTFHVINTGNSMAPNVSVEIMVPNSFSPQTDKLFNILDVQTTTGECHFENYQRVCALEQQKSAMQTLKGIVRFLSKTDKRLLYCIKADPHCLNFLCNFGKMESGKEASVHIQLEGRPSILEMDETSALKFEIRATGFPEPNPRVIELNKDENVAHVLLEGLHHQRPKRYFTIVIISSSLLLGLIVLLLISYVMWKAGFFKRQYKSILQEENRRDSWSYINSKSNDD
T1 sequence (P05556 21-798): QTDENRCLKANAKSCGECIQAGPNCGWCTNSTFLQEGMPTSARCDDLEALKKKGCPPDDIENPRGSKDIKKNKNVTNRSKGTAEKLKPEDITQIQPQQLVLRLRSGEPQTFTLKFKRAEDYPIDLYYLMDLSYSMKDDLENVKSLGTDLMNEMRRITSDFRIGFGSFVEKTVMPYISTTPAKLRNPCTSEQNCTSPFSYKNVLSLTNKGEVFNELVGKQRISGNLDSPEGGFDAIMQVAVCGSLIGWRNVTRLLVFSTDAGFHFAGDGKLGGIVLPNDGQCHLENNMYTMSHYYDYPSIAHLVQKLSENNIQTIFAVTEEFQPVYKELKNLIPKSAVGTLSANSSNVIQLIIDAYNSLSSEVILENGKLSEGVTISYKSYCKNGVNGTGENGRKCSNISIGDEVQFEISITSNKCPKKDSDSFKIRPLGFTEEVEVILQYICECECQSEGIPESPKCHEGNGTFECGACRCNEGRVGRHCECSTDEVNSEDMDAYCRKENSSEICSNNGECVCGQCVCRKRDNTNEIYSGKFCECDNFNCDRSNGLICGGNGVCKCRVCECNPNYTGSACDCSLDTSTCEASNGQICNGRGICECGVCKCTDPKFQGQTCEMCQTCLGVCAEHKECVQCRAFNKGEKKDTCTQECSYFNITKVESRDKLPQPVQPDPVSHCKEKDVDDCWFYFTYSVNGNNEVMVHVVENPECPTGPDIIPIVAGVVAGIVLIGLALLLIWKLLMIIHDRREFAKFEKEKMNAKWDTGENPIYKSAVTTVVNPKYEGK

As for `CC(C)[C@@H](CSCCc1ccccc1)NC(=O)N[C@@H](CC(=O)O)c1ccc2c(c1)OCO2` [(3S)-3-(1,3-benzodioxol-5-yl)-3-{[({(1S)-2-methyl-1-[(phenethylsulfanyl)methyl]propyl}amino)carbonyl]amino}propanoic acid], the inhibition at 100 µM is 98% and the IC50 was 20 µM.

On to `Cc1ccc(S(=O)(=O)NC[C@@H](CSc2ccccc2)NC(=O)N[C@@H](CC(=O)O)c2ccc3c(c2)OCO3)cc1` [(3S)-3-(1,3-benzodioxol-5-yl)-3-{[({(1S)-2-{[(4-methylphenyl)sulfonyl]amino}-1-[(phenylthio)methyl]ethyl}amino)carbonyl]amino}propanoic acid], for which the inhibition at 100 µM was 98% and the IC50 is 10 µM.

With `CSCC[C@@H](CSc1ccccc1)NC(=S)N[C@@H](CC(=O)O)c1ccc2c(c1)OCO2` [(3S)-3-(1,3-benzodioxol-5-yl)-3-{[({(1S)-3-(methylsulfanyl)-1-[(phenylsulfanyl)methyl]propyl}amino)carbothioyl]amino}propanoic acid], the inhibition at 100 µM is 100% and the IC50 is 3 µM.

Take `CSCC[C@@H](CSc1cccc(NC(=O)Nc2ccccc2C)c1)NC(=O)N[C@@H](CC(=O)O)c1ccc2c(c1)OCO2` [(3S)-3-(1,3-benzodioxol-5-yl)-3-{[({(1S)-3-(methylsulfanyl)-1-[({3-[(2-toluidinocarbonyl)amino]phenyl}sulfanyl)methyl]propyl}amino)carbonyl]amino}propanoic acid]: the inhibition at 100 µM is 100% and the IC50 was 0.002 µM.

As to `CSCC[C@@H](CSc1ccc(NC(=O)Nc2ccccc2C)cc1)NC(=O)N[C@@H](CC(=O)O)c1ccc2c(c1)OCO2` [(3S)-3-(1,3-benzodioxol-5-yl)-3-{[({(1S)-3-(methylsulfanyl)-1-[({4-[(2-toluidinocarbonyl)amino]phenyl}sulfanyl)methyl]propyl}amino)carbonyl]amino}propanoic acid], the inhibition at 100 µM is 100% and the IC50 was 0.0009 µM.

On to `CSCC[C@@H](CSc1ccc(NS(C)(=O)=O)cc1)NC(=O)N[C@@H](CC(=O)O)c1ccc2c(c1)OCO2` [(3S)-3-(1,3-benzodioxol-5-yl)-3-{[({(1S)-3-(methylsulfanyl)-1-[({4-[(methylsulfonyl)amino]phenyl}sulfanyl)methyl]propyl}amino)carbonyl]amino}propanoic acid], for which the inhibition at 100 µM was 100% and the half-maximal inhibitory concentration (IC50) is 0.5 µM.

For the compound `CCCS(=O)(=O)Nc1cccc(SC[C@H](CCSC)NC(=O)N[C@@H](CC(=O)O)c2ccc3c(c2)OCO3)c1` [(3S)-3-(1,3-benzodioxol-5-yl)-3-{[({(1S)-3-(methylthio)-1-[({3-[(propylsulfonyl)amino]phenyl}thio)methyl]propyl}amino)carbonyl]amino}propanoic acid], the inhibition at 100 µM was 100% and the IC50 is 0.5 µM.

On to `O=C(O)C[C@H](NC(=O)N[C@@H](CCSc1ccccc1)CSc1ccccc1)c1ccc2c(c1)OCO2` [(3S)-3-(1,3-benzodioxol-5-yl)-3-{[({(1S)-3-(phenylthio)-1-[(phenylthio)methyl]propyl}amino)carbonyl]amino}propanoic acid], for which the inhibition at 100 µM was 100% and the IC50 was 0.3 µM.

As for `CC(C)C[C@@H](CSc1ccccc1)NC(=O)N[C@@H](CC(=O)O)c1ccc2c(c1)OCO2` [(3S)-3-(1,3-benzodioxol-5-yl)-3-{[({(1S)-3-methyl-1-[(phenylsulfanyl)methyl]butyl}amino)carbonyl]amino}propanoic acid], the inhibition at 100 µM was 100% and the IC50 was 2 µM.

Take `O=C(O)C[C@H](NC(=O)N[C@@H](CCCO)CSc1ccccc1)c1ccc2c(c1)OCO2` [(3S)-3-(1,3-benzodioxol-5-yl)-3-{[({(1S)-4-hydroxy-1-[(phenylthio)methyl]butyl}amino)carbonyl]amino}propanoic acid]: the inhibition at 100 µM was 100% and the IC50 is 2 µM.

On to `CC(C)C(NC(=O)N[C@@H](CC(=O)O)c1ccc2c(c1)OCO2)C(Sc1ccccc1)Sc1ccccc1` (stereo partly drawn) [(3S)-3-[({[1-{[bis-(phenylsulfanyl)]methyl}-2-methylpropyl]amino}carbonyl)amino]-3-[(3,4-methylenedioxy)phenyl]propanoic acid], for which the inhibition at 100 µM was 95% and the IC50 is 35 µM.

With `CSCC[C@@H](CSc1ccc(NC(C)=O)cc1)NC(=O)N[C@@H](CC(=O)O)c1ccc2c(c1)OCO2` [(3S)-3-[({[(1S)-1-({[4-(acetylamino)phenyl]sulfanyl}methyl)-3-(methylsulfanyl)propyl]amino}carbonyl)amino]-3-(1,3-benzodioxol-5-yl)propanoic acid], the inhibition at 100 µM was 100% and the IC50 is 3 µM.

`CSCC[C@@H](CSc1ccccc1N)NC(=O)N[C@@H](CC(=O)O)c1ccc2c(c1)OCO2` [(3S)-3-[({[(1S)-1-{[(2-aminophenyl)sulfanyl]methyl}-3-(methylsulfanyl)propyl]amino}carbonyl)amino]-3-(1,3-benzodioxol-5-yl)propanoic acid]: the inhibition at 100 µM is 100% and the IC50 was 0.3 µM.

As to `CSCC[C@@H](CSc1cccc(N)c1)NC(=O)N[C@@H](CC(=O)O)c1ccc2c(c1)OCO2` [(3S)-3-[({[(1S)-1-{[(3-aminophenyl)thio]methyl}-3-(methylthio)propyl]amino}carbonyl)amino]-3-(1,3-benzodioxol-5-yl)propanoic acid], the inhibition at 100 µM was 100% and the IC50 is 0.3 µM.

On to `CSCC[C@@H](CSc1ccc(N)cc1)NC(=O)N[C@@H](CC(=O)O)c1ccc2c(c1)OCO2` [(3S)-3-[({[(1S)-1-{[(4-aminophenyl)sulfanyl]methyl}-3-(methylsulfanyl)propyl]amino}carbonyl)amino]-3-(1,3-benzodioxol-5-yl)propanoic acid], for which the inhibition at 100 µM is 100% and the IC50 is 3 µM.

Turning to `C=CCOC[C@@H](CSc1ccccc1)NC(=O)N[C@@H](CC(=O)O)c1ccc2c(c1)OCO2` [(3S)-3-{[({(1S)-2-(allyloxy)-1-[(phenylthio)methyl]ethyl}amino)carbonyl]amino}-3-(1,3-benzodioxol-5-yl)propanoic acid], the inhibition at 100 µM was 100% and the IC50 was 0.3 µM.

For `CSCC[C@@H](CSc1ccccc1)NC(=O)N[C@H](CSC)CC(=O)O` [(3S)-4-(methylsulfanyl)-3-{[({(1S)-3-(methylsulfanyl)-1-[(phenylsulfanyl)methyl]propyl}amino)carbonyl]amino}butanoic acid], the inhibition at 100 µM is 99% and the IC50 was 8 µM.

Take `COC(=O)NCCC[C@@H](CSc1ccccc1)NC(=O)N[C@@H](CC(=O)O)c1ccc2c(c1)OCO2` [(8S,12S)-12-(1,3-benzodioxol-5-yl)-3,10-dioxo-8-((phenylsulfanyl)methyl)-2-oxa-4,9,11-triazatetradecan-14-oic acid]: the inhibition at 100 µM is 100% and the IC50 is 2 µM.

As for `COC(=O)NCCCC[C@H](NC(=O)N[C@@H](CC(=O)O)c1ccc2c(c1)OCO2)C(=O)NCc1nc2ccccc2[nH]1` [(9S,13S)-9-{[(1H-benzimidazol-2-ylmethyl)amino]carbonyl}-13-(1,3-benzodioxol-5-yl)-3,11-dioxo-2-oxa-4,10,12-triazapentadecan-15-oic acid], the inhibition at 100 µM is 100% and the IC50 is 2 µM.
